#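 The concentration for 50% growth inhibition is given as GI50. TGI marks complete inhibition of growth.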
# Columns and labels:
# Assay in all cases: NCI-60 cell line screen, 384-well format
# [1] = test system: RXF 393 renal
# [2] = test system: PC-3 prostate
# [3] = test system: A498 renal
# [4] = test system: ACHN renal
# [5] = test system: A549 NSCLC
# [6] = test system: MALME-3M melanoma
# [7] = test system: 786-0 renal
# [8] = test system: MCF7 breast
# [9] = test system: MDA-MB-435 melanoma
# [10] = test system: NCI-H460 NSCLC
# [11] = test system: SNB-75 CNS
# [12] = test system: NCI-H522 lung
# [13] = test system: BT-549 breast
# [14] = test system: HL-60(TB) leukemia
# [15] = test system: UACC-257 melanoma
# [16] = test system: SK-OV-3 ovarian
# [17] = test system: SN12C renal
# [18] = test system: TK-10 renal
# [19] = test system: UACC-62 melanoma
# [20] = test system: OVCAR-8 ovarian
# [21] = test system: SF-295 CNS
# [22] = test system: HCC-2998 colon
# [23] = test system: NCI-H226 lung
# [24] = test system: RPMI-8226 leukemia
# [25] = test system: COLO 205 colon
# [26] = test system: NCI/ADR-RES ovarian
# [27] = test system: HOP-62 NSCLC
# [28] = test system: DU-145 prostate
# [29] = test system: SK-MEL-28 melanoma
# [30] = test system: SNB-19 CNS
# [31] = test system: SK-MEL-5 melanoma
# [32] = test system: SF-268 CNS
# [33] = test system: EKVX NSCLC
# [34] = test system: KM12 colon
# [35] = test system: HCT-116 colon
# [36] = test system: HOP-92 NSCLC
# [37] = test system: U251 glioblastoma
# [38] = test system: MDA-MB-468 breast
# [39] = test system: LOX IMVI melanoma
# [40] = test system: OVCAR-4 ovarian
# [41] = test system: CCRF-CEM leukemia
# [42] = test system: NCI-H23 lung
# [43] = test system: SW-620 colon
# [44] = test system: HCT-15 colon
# [45] = test system: SF-539 CNS
# [46] = test system: IGROV1 ovarian
# [47] = test system: NCI-H322M lung
# [48] = test system: OVCAR-3 ovarian
# [49] = test system: MOLT-4 leukemia
# [50] = test system: CAKI-1 renal
# [51] = test system: SK-MEL-2 melanoma
# [52] = test system: HS 578T breast
# [53] = test system: M14 melanoma
# [54] = test system: HT29 colon
# [55] = test system: K-562 leukemia
# [56] = test system: T-47D breast
# [57] = test system: OVCAR-5 ovarian
# [58] = test system: UO-31 renal
compound,measurement,setting,value
O=C1c2ccccc2C(=O)C(Cl)C1Cl (stereo not given),GI50,[1],1.63 µM
same,TGI,[1],3 µM
same,GI50,[2],1.73 µM
same,TGI,[2],3.59 µM
same,GI50,[3],17.7 µM
same,TGI,[3],31.6 µM
same,GI50,[4],1.38 µM
same,TGI,[4],2.68 µM
same,GI50,[5],15.1 µM
same,TGI,[5],28.7 µM
same,GI50,[6],1.76 µM
same,TGI,[6],3.15 µM
same,GI50,[7],1.87 µM
same,TGI,[7],4.85 µM
same,GI50,[8],1.39 µM
same,TGI,[8],2.72 µM
same,GI50,[9],1.83 µM
same,TGI,[9],3.4 µM
same,GI50,[10],14 µM
same,TGI,[10],27.2 µM
same,GI50,[11],7.16 µM
same,TGI,[11],20.5 µM
same,GI50,[12],1.5 µM
same,TGI,[12],2.84 µM
same,GI50,[13],1.56 µM
same,TGI,[13],2.91 µM
same,GI50,[14],0.243 µM
same,TGI,[14],0.743 µM
same,GI50,[15],1.94 µM
same,TGI,[15],3.36 µM
same,GI50,[16],13.2 µM
same,TGI,[16],26.1 µM
same,GI50,[17],1.81 µM
same,TGI,[17],3.46 µM
same,GI50,[18],1.58 µM
same,TGI,[18],2.93 µM
same,GI50,[19],1.37 µM
same,TGI,[19],2.85 µM
same,GI50,[20],1.67 µM
same,TGI,[20],3.07 µM
same,GI50,[21],15.2 µM
same,TGI,[21],28.5 µM
same,GI50,[22],14.1 µM
same,TGI,[22],27.2 µM
same,GI50,[23],1.41 µM
same,TGI,[23],2.77 µM
same,GI50,[24],1.55 µM
same,TGI,[24],2.9 µM
same,GI50,[25],1.84 µM
same,TGI,[25],3.26 µM
same,GI50,[26],11.2 µM
same,TGI,[26],23.3 µM
same,GI50,[27],3.33 µM
same,TGI,[27],11.3 µM
same,GI50,[28],1.15 µM
same,TGI,[28],2.55 µM
same,GI50,[29],3.24 µM
same,TGI,[29],9.55 µM
same,GI50,[30],14.1 µM
same,TGI,[30],27.2 µM
same,GI50,[31],2.31 µM
same,TGI,[31],9.5 µM
same,GI50,[32],13.9 µM
same,TGI,[32],27 µM
same,GI50,[33],7.02 µM
same,TGI,[33],20.4 µM
same,GI50,[34],13.7 µM
same,TGI,[34],26.8 µM
same,GI50,[35],1.62 µM
same,TGI,[35],3.01 µM
same,GI50,[36],1.64 µM
same,TGI,[36],3 µM
same,GI50,[37],16.2 µM
same,TGI,[37],30 µM
same,GI50,[38],1.53 µM
same,TGI,[38],2.87 µM
same,GI50,[39],0.0967 µM
same,TGI,[39],17.4 µM
same,GI50,[40],1.21 µM
same,TGI,[40],2.46 µM
same,GI50,[41],1.49 µM
same,TGI,[41],2.84 µM
same,GI50,[42],1.76 µM
same,TGI,[42],3.92 µM
same,GI50,[43],1.63 µM
same,TGI,[43],3.02 µM
same,GI50,[44],1.42 µM
same,TGI,[44],2.75 µM
same,GI50,[45],1.69 µM
same,TGI,[45],3.08 µM
same,GI50,[46],1.33 µM
same,TGI,[46],4.33 µM
same,GI50,[47],16.3 µM
same,TGI,[47],30 µM
same,GI50,[48],1.6 µM
same,TGI,[48],2.95 µM
same,GI50,[49],1.36 µM
same,TGI,[49],2.65 µM
same,GI50,[50],1.66 µM
same,TGI,[50],3.03 µM
same,GI50,[51],1.91 µM
same,TGI,[51],3.32 µM
same,GI50,[52],12.7 µM
same,TGI,[52],25.3 µM
same,GI50,[53],1.89 µM
same,TGI,[53],3.39 µM
same,GI50,[54],2.78 µM
same,TGI,[54],8.03 µM
Cc1cc(-c2nc(-c3ccc(OC(F)(F)F)cc3)no2)nn1Cc1ccnc(N2CCN(C3CC3)CC2)c1,GI50,[1],< 0.01 µM
same,TGI,[1],< 0.01 µM
same,GI50,[2],2.99 µM
same,TGI,[2],66.9 µM
same,GI50,[4],12.6 µM
same,TGI,[4],> 100 µM
same,GI50,[5],< 0.01 µM
same,TGI,[5],> 100 µM
same,GI50,[6],4.82 µM
same,TGI,[6],18.3 µM
same,GI50,[7],4.88 µM
same,TGI,[7],> 100 µM
same,GI50,[8],0.47 µM
same,TGI,[8],15.4 µM
same,GI50,[55],< 0.01 µM
same,TGI,[55],44.9 µM
same,GI50,[9],5.96 µM
same,TGI,[9],> 100 µM
same,GI50,[10],< 0.01 µM
same,TGI,[10],< 0.01 µM
same,GI50,[12],< 0.01 µM
same,TGI,[12],> 100 µM
same,GI50,[13],2.06 µM
same,TGI,[13],35.9 µM
same,GI50,[14],1.73 µM
same,TGI,[14],11 µM
same,GI50,[56],< 0.01 µM
same,TGI,[56],1.5 µM
same,GI50,[15],< 0.01 µM
same,TGI,[15],3.31 µM
same,GI50,[16],< 0.01 µM
same,TGI,[16],> 100 µM
same,GI50,[17],7.01 µM
same,TGI,[17],> 100 µM
same,GI50,[18],40.9 µM
same,TGI,[18],> 100 µM
same,GI50,[19],9.33 µM
same,TGI,[19],21.8 µM
same,GI50,[20],< 0.01 µM
same,TGI,[20],> 100 µM
same,GI50,[21],> 100 µM
same,TGI,[21],> 100 µM
same,GI50,[22],4.19 µM
same,TGI,[22],20.2 µM
same,GI50,[23],4.01 µM
same,TGI,[23],> 100 µM
same,GI50,[24],< 0.01 µM
same,TGI,[24],> 100 µM
same,GI50,[25],5.77 µM
same,TGI,[25],> 100 µM
same,GI50,[26],< 0.01 µM
same,TGI,[26],> 100 µM
same,GI50,[27],< 0.01 µM
same,TGI,[27],20.7 µM
same,GI50,[28],20.3 µM
same,TGI,[28],> 100 µM
same,GI50,[29],12.9 µM
same,TGI,[29],28.7 µM
same,GI50,[30],10.9 µM
same,TGI,[30],> 100 µM
same,GI50,[31],< 0.01 µM
same,TGI,[31],2.24 µM
same,GI50,[33],< 0.01 µM
same,TGI,[33],62.6 µM
same,GI50,[34],5.2 µM
same,TGI,[34],70.4 µM
same,GI50,[35],< 0.01 µM
same,TGI,[35],> 100 µM
same,GI50,[36],3.45 µM
same,TGI,[36],> 100 µM
same,GI50,[37],1.83 µM
same,TGI,[37],> 100 µM
same,GI50,[38],< 0.01 µM
same,TGI,[38],< 0.01 µM
same,GI50,[39],< 0.01 µM
same,TGI,[39],14.1 µM
same,GI50,[40],28.7 µM
same,TGI,[40],> 100 µM
same,GI50,[41],< 0.01 µM
same,TGI,[41],< 0.01 µM
same,GI50,[42],< 0.01 µM
same,TGI,[42],84.8 µM
same,GI50,[57],15.7 µM
same,TGI,[57],86.1 µM
same,GI50,[43],12.1 µM
same,TGI,[43],89.7 µM
same,GI50,[44],1.44 µM
same,TGI,[44],18.8 µM
same,GI50,[46],9.15 µM
same,TGI,[46],> 100 µM
same,GI50,[48],6.51 µM
same,TGI,[48],> 100 µM
same,GI50,[49],< 0.01 µM
same,TGI,[49],7.05 µM
same,GI50,[50],14.9 µM
same,TGI,[50],> 100 µM
same,GI50,[58],15.7 µM
same,TGI,[58],> 100 µM
same,GI50,[53],2.13 µM
same,TGI,[53],7.15 µM
same,GI50,[54],2.43 µM
same,TGI,[54],12.3 µM

# From PubChem BioAssay (NCI)
